Laboratory results as given in patent publication US20260375165A1, “ENGINEERED HUMAN SERINE DEHYDRATASE ENZYMES AND METHODS FOR TREATING CANCER” (BOARD OF REGENTS, THE UNIVERSITY OF TEXAS SYSTEM, priority 2022, published 2026).
Changes are numbered by the printed parent chain.

Tests used:
Assay type in all cases: biochemical
[1] = molecular target: T1, human serine dehydratase (hSDH, EC 4.3.1.17), wild type, SEQ ID NO: 1 (Homo sapiens, UniProt P20132); test: MBTH assay, kcat/Km of purified wild-type hSDH; conditions: role: substrate
T1 construct: hexahistidine (N); made in house; host or cells: E. coli BL21 (DE3), pET28a
T1 sequence (P20132 1-328): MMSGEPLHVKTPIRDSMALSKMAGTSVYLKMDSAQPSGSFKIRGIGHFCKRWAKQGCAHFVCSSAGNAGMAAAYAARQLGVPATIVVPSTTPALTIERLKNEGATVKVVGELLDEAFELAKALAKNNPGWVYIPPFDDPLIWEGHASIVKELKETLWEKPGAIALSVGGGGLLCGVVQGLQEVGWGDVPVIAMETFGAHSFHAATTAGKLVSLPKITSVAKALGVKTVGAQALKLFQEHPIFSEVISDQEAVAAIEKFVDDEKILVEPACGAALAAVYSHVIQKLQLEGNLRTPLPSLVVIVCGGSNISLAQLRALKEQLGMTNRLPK
Description: (§1) Human SDH variants were expressed and purified for subsequent biophysical characterization. In brief, hSDH variants in the pET28a plasmid was transformed into BL21 (DE3) for expression. The cells were grown overnight at 37 °C in 5 mL of TB media with 50 μg/mL of kanamycin. The subsequent morning, cultures were inoculated, at a 1:1000 dilution, into 0.5 L of fresh TB media containing 50 μg/mL of kanamycin. Upon reaching an A600 of 0.6 to 0.8, the culture was moved to 25 °C and isopropyl β-D-1-thiogalactopyranoside (IPTG) was added to a final concentration of 1 mM to induce T7 RNA polymerase expression, and subsequently hSDH variant protein expression. After overnight incubation, cells were harvested via centrifugation at 5,500 rpm for 20 minutes. The cell pellet, after removing the supernatant, was resuspended using 25 mL of pET lysis buffer (10 mM NaH2PO4, 30 mM imidazole, 300 mM NaCl, pH 8.0). The cell suspension was then lysed by sonication and cleared by centrifugation at 14,000 rpm for 40 minutes. The supernatant from this centrifugation step was then filtered using a 0.22 μm membrane. The clarified supernatant was then applied to 1 mL of nickel-nitrotriacetic acid (Ni-NTA) resin that had been pre-equilibrated with 20 mL of pET lysis buffer. The resin was washed with 20 mL (20 column volumes) of pET lysis buffer. Afterward, the resin was incubated with 3 mL of pET elution buffer (10 mM NaH2POd4, 250 mM imidazole, 300 mM NaCl, pH 8.0), equilibrated for 5 minutes, and then eluted. The elution step was then repeated with 2 ml of extra elution buffer to increase recovery. […] Purity of the proteins were analyzed via sodium dodecyl sulfate-polyacrylamide gel electrophoresis (SDS-PAGE) on a 4% to 20% pre-cast Tris-Glycine gel run under reducing conditions (2.5% β-Mercaptoethanol (BME). Protein concentration was determined via A280 under denaturing conditions using a calculated extinction coefficient (8280=33960 M^−1 cm^−1) from Geneious software (v. 8.0.5). […]

[2] = molecular target: T2, human serine dehydratase (hSDH) Variant 1 (K221F, A222S), SEQ ID NO: 2 (Homo sapiens, UniProt P20132, A222S/K221F); test: MBTH assay, kcat/Km of purified hSDH Variant 1; conditions: role: substrate; threonine 1-100 mM, 1-2 μM enzyme, 37 °C, 20 seconds
T2 construct: hexahistidine (N); made in house; host or cells: E. coli BL21 (DE3), pET28a
T2 sequence (P20132 1-328 K221F/A222S): T1 sequence (P20132 1-328) with K221F, A222S
Description: as §1, with “minutes.” for “minutes. The supernatant from this centrifugation step was then filtered using a 0.22 μm membrane. The clarified supernatant was then applied to 1 mL of nickel-nitrotriacetic acid (Ni-NTA) resin that had been pre-equilibrated with 20 mL of pET lysis buffer. The resin was washed with 20 mL (20 column volumes) of pET lysis buffer. Afterward, the resin was incubated with 3 mL of pET elution buffer (10 mM NaH2POd4, 250 mM imidazole, 300 mM NaCl, pH 8.0), equilibrated for 5 minutes, and then eluted. The elution step was then repeated with 2 ml of extra elution buffer to increase recovery.”

[3] = molecular target: T3, human serine dehydratase (hSDH) Variant 2 (S26N, R51H, S63P, M70I, L94P, G129D, A204S, K221R, A222S), SEQ ID NO: 3 (Homo sapiens, UniProt P20132, A204S/A222S/G129D/K221R/L94P/M70I/R51H/S26N/S63P); test: MBTH assay, kcat/Km of purified hSDH Variant 2; conditions: role: substrate; threonine 1-100 mM, 1-2 μM enzyme, 37 °C, 20 seconds
T3 sequence (P20132 1-328 S26N/R51H/S63P/M70I/L94P/G129D/A204S/K221R/A222S): T1 sequence (P20132 1-328) with S26N, R51H, S63P, M70I, L94P, G129D, A204S, K221R, A222S
Description: as §1, with “minutes.” for “minutes. The supernatant from this centrifugation step was then filtered using a 0.22 μm membrane. The clarified supernatant was then applied to 1 mL of nickel-nitrotriacetic acid (Ni-NTA) resin that had been pre-equilibrated with 20 mL of pET lysis buffer. The resin was washed with 20 mL (20 column volumes) of pET lysis buffer. Afterward, the resin was incubated with 3 mL of pET elution buffer (10 mM NaH2POd4, 250 mM imidazole, 300 mM NaCl, pH 8.0), equilibrated for 5 minutes, and then eluted. The elution step was then repeated with 2 ml of extra elution buffer to increase recovery.”

[4] = molecular target: T4, human serine dehydratase (hSDH) Variant 3 (S26N, R51H, S63P, M70I, L94P, G129D, A204S, K221R, A222S, L112S), SEQ ID NO: 4 (Homo sapiens, UniProt P20132, A204S/A222S/G129D/K221R/L112S/L94P/M70I/R51H/S26N/S63P); test: MBTH assay, kcat/Km of purified hSDH Variant 3; conditions: role: substrate; threonine 1-100 mM, 1-2 μM enzyme, 37 °C, 20 seconds
T4 sequence (P20132 1-328 S26N/R51H/S63P/M70I/L94P/L112S/G129D/A204S/K221R/A222S): T1 sequence (P20132 1-328) with S26N, R51H, S63P, M70I, L94P, L112S, G129D, A204S, K221R, A222S
Description: as §1, with “minutes.” for “minutes. The supernatant from this centrifugation step was then filtered using a 0.22 μm membrane. The clarified supernatant was then applied to 1 mL of nickel-nitrotriacetic acid (Ni-NTA) resin that had been pre-equilibrated with 20 mL of pET lysis buffer. The resin was washed with 20 mL (20 column volumes) of pET lysis buffer. Afterward, the resin was incubated with 3 mL of pET elution buffer (10 mM NaH2POd4, 250 mM imidazole, 300 mM NaCl, pH 8.0), equilibrated for 5 minutes, and then eluted. The elution step was then repeated with 2 ml of extra elution buffer to increase recovery.”

[5] = molecular target: T5, human serine dehydratase (hSDH) Variant 4 (I13T, S26N, R51H, I96T, D114E, G129D, K221R, A222S, W157R, D261L, L112S), SEQ ID NO: 5 (Homo sapiens, UniProt P20132, A222S/D114E/D261L/G129D/I13T/I96T/K221R/L112S/R51H/S26N/W157R); test: MBTH assay, kcat/Km of purified hSDH Variant 4; conditions: role: substrate; threonine 1-100 mM, 1-2 μM enzyme, 37 °C, 20 seconds
T5 sequence (P20132 1-328 I13T/S26N/R51H/I96T/L112S/D114E/G129D/W157R/K221R/A222S/D261L): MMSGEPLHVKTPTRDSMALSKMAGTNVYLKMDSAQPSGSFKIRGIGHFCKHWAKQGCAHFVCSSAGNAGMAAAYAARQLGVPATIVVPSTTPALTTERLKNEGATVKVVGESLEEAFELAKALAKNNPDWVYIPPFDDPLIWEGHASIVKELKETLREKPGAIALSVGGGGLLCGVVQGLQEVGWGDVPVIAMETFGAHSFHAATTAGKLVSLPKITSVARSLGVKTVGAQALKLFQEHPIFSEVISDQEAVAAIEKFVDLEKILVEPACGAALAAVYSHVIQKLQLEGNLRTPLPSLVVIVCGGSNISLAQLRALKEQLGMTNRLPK
Description: as §1, with “minutes.” for “minutes. The supernatant from this centrifugation step was then filtered using a 0.22 μm membrane. The clarified supernatant was then applied to 1 mL of nickel-nitrotriacetic acid (Ni-NTA) resin that had been pre-equilibrated with 20 mL of pET lysis buffer. The resin was washed with 20 mL (20 column volumes) of pET lysis buffer. Afterward, the resin was incubated with 3 mL of pET elution buffer (10 mM NaH2POd4, 250 mM imidazole, 300 mM NaCl, pH 8.0), equilibrated for 5 minutes, and then eluted. The elution step was then repeated with 2 ml of extra elution buffer to increase recovery.”

[6] = molecular target: T6, human serine dehydratase (hSDH) Variant 5 (I13T, S26N, R51H, I96T, D114E, G129D, K221R, A222G, W157R, D261L, L112S), SEQ ID NO: 6 (Homo sapiens, UniProt P20132, A222G/D114E/D261L/G129D/I13T/I96T/K221R/L112S/R51H/S26N/W157R); test: MBTH assay, kcat/Km of purified hSDH Variant 5; conditions: role: substrate; threonine 1-100 mM, 1-2 μM enzyme, 37 °C, 20 seconds
T6 sequence (P20132 1-328 I13T/S26N/R51H/I96T/L112S/D114E/G129D/W157R/K221R/A222G/D261L): T5 sequence (P20132 1-328 I13T/S26N/R51H/I96T/L112S/D114E/G129D/W157R/K221R/A222S/D261L) with S222G
Description: as §1, with “minutes.” for “minutes. The supernatant from this centrifugation step was then filtered using a 0.22 μm membrane. The clarified supernatant was then applied to 1 mL of nickel-nitrotriacetic acid (Ni-NTA) resin that had been pre-equilibrated with 20 mL of pET lysis buffer. The resin was washed with 20 mL (20 column volumes) of pET lysis buffer. Afterward, the resin was incubated with 3 mL of pET elution buffer (10 mM NaH2POd4, 250 mM imidazole, 300 mM NaCl, pH 8.0), equilibrated for 5 minutes, and then eluted. The elution step was then repeated with 2 ml of extra elution buffer to increase recovery.”

| SMILES | kcat/KM (L-serine to pyruvate) ([1]; irreversible deamination of L-serine to pyruvate) | kcat/KM (L-threonine to α-ketobutyrate) ([1]; irreversible deamination of L-threonine to α-ketobutyrate) | Kcat /Km (Threonine) ([1]; threonine 1-100 mM, 1-2 μM enzyme, 37 °C, 20 seconds) [M⁻¹ s⁻¹] | Kcat /Km (Threonine) [2] [M⁻¹ s⁻¹] | Kcat /Km (Threonine) [3] [M⁻¹ s⁻¹] | Kcat /Km (Threonine) [4] [M⁻¹ s⁻¹] | Kcat /Km (Threonine) [5] [M⁻¹ s⁻¹] | Kcat /Km (Threonine) [6] [M⁻¹ s⁻¹] |
| --- | --- | --- | --- | --- | --- | --- | --- | --- |
| N[C@@H](CO)C(=O)O [Serine, L-serine] | ~ 0.6 s^−1 mM^−1 |  |  |  |  |  |  |  |
| C[C@@H](O)[C@H](N)C(=O)O [Threonine, L-threonine] |  | ~ 1.1 s^−1 mM^−1 | 1100 ± 50 | 3800 ± 300 | 2000 ± 50 | 2800 ± 200 | 6800 ± 700 | 1700 ± 100 |
